Data as given in patent US11477982B2, “2-amino-5-oxyalkyl-pyrimidine derivatives and their use for controlling undesired plant growth” (Bayer CropScience Aktiengesellschaft, priority 2017, dated 2022).

Legend:
Format in all cases: in vivo
[1] = system: ABUTH: Abutilon theophrasti; experiment: Post-emergence herbicidal effect
Summary of the method: (§1)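 Weeds grown in sandy loam in a greenhouse and treated at the one-leaf stage, 2 to 3 weeks after sowing. Compounds formulated as WP or EC were sprayed with 0.5% additive at 600 l/ha water. Activity rated visually against untreated controls after about 3 weeks (100% = plants dead, 0% = like controls).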

[2] = system: ALOMY: Alopecurus myosuroides; experiment: Post-emergence herbicidal effect
Summary of the method: as §1

[3] = system: AMARE: Amaranthus retroflexus; experiment: Post-emergence herbicidal effect
Summary of the method: as §1

[4] = system: AVEFA: Avena fatua; experiment: Post-emergence herbicidal effect
Summary of the method: as §1

[5] = system: ECHCG: Echinochloa crus-galli; experiment: Post-emergence herbicidal effect
Summary of the method: as §1

[6] = system: LOLRI: Lolium rigidum; experiment: Post-emergence herbicidal effect
Summary of the method: as §1

[7] = system: SETVI: Setaria viridis; experiment: Post-emergence herbicidal effect
Summary of the method: as §1

[8] = system: ABUTH: Abutilon theophrasti; experiment: Pre-emergence herbicidal effect; conditions: dosage 320 g/ha
Summary of the method: (§2)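 Scoring is visual, as percent effect compared with untreated controls, about 3 weeks after application to the soil covering freshly sown seeds. Compounds were delivered as aqueous WP or EC preparations with 0.5% additive, 600 l/ha spray volume.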

[9] = system: ALOMY: Alopecurus myosuroides; experiment: Pre-emergence herbicidal effect; conditions: pre-emergence; dosage 320 g/ha
Summary of the method: as §2

[10] = system: AMARE: Amaranthus retroflexus; experiment: Pre-emergence herbicidal effect; conditions: pre-emergence; dosage 320 g/ha
Summary of the method: as §2

[11] = system: AVEFA: Avena fatua; experiment: Pre-emergence herbicidal effect; conditions: dosage 320 g/ha
Summary of the method: as §2

[12] = system: ECHCG: Echinochloa crus-galli; experiment: Pre-emergence herbicidal effect; conditions: pre-emergence; dosage 320 g/ha
Summary of the method: as §2

[13] = system: HORMU: Hordeum murinum; experiment: Pre-emergence herbicidal effect; conditions: pre-emergence; dosage 320 g/ha
Summary of the method: as §2

[14] = system: LOLRI: Lolium rigidum; experiment: Pre-emergence herbicidal effect; conditions: dosage 320 g/ha
Summary of the method: as §2

[15] = system: MATIN: Matricaria inodora; experiment: Pre-emergence herbicidal effect; conditions: pre-emergence; dosage 320 g/ha
Summary of the method: as §2

[16] = system: PHBPU: Ipomoea purpurea; experiment: Pre-emergence herbicidal effect; conditions: dosage 320 g/ha
Summary of the method: as §2

[17] = system: POLCO: Polygonum convolvulus; experiment: Pre-emergence herbicidal effect; conditions: dosage 320 g/ha
Summary of the method: as §2

[18] = system: SETVI: Setaria viridis; experiment: Pre-emergence herbicidal effect; conditions: pre-emergence; dosage 320 g/ha
Summary of the method: as §2

[19] = system: STEME: Stellaria media; experiment: Pre-emergence herbicidal effect; conditions: pre-emergence; dosage 320 g/ha
Summary of the method: as §2

[20] = system: VERPE: Veronica persica; experiment: Pre-emergence herbicidal effect; conditions: dosage 320 g/ha
Summary of the method: as §2

[21] = system: VIOTR: Viola tricolor; experiment: Pre-emergence herbicidal effect; conditions: dosage 320 g/ha
Summary of the method: as §2

[22] = system: STEME: Stellaria media; experiment: Post-emergence herbicidal effect; conditions: dosage 320 g/ha
Summary of the method: as §1

[23] = system: VERPE: Veronica persica; experiment: Post-emergence herbicidal effect; conditions: dosage 320 g/ha
Summary of the method: as §1

[24] = system: VIOTR: Viola tricolor; experiment: Post-emergence herbicidal effect; conditions: dosage 320 g/ha
Summary of the method: as §1

SMILES	Herbicidal action against AMARE ([3]; dosage 320 g/ha)	Herbicidal action against ECHCG ([5]; dosage 320 g/ha)	Herbicidal action against SETVI ([7]; dosage 320 g/ha)	Herbicidal action against ABUTH [8]	Herbicidal action against ALOMY [9]	Herbicidal action against AMARE [10]	Herbicidal action against AVEFA [11]	Herbicidal action against ECHCG [12]	Herbicidal action against HORMU [13]	Herbicidal action against LOLRI [14]	Herbicidal action against MATIN [15]	Herbicidal action against PHBPU [16]	Herbicidal action against POLCO [17]	Herbicidal action against SETVI [18]	Herbicidal action against STEME [19]	Herbicidal action against VERPE [20]	Herbicidal action against VIOTR [21]	Herbicidal action against ABUTH ([1]; dosage 320 g/ha)	Herbicidal action against STEME [22]	Herbicidal action against VERPE [23]	also measured
Cc1ccc2c(c1)[C@H](Nc1ncc(C(C)(C)O)c(N)n1)[C@@H](C)C2 [drawing 10, reference compound]	70%	10%	30%																		Herbicidal action against ABUTH ([1]; dosage 80 g/ha): 30%; Herbicidal action against ALOMY ([2]; dosage 80 g/ha): 0%; Herbicidal action against ALOMY ([2]; dosage 320 g/ha): 10%; Herbicidal action against AMARE ([3]; dosage 80 g/ha): 60%; Herbicidal action against AVEFA ([4]; dosage 320 g/ha): 0%; Herbicidal action against ECHCG ([5]; dosage 80 g/ha): 0%; Herbicidal action against LOLRI ([6]; dosage 80 g/ha): 0%; Herbicidal action against LOLRI ([6]; dosage 320 g/ha): 0%; Herbicidal action against SETVI ([7]; dosage 80 g/ha): 0%
Cc1ccc2c(c1)[C@H](Nc1ncc(C(C)(C)O)c(N)n1)[C@@H](C)C2 [drawing 9, reference compound]	70%	10%	30%																		Herbicidal action against ABUTH ([1]; dosage 80 g/ha): 30%; Herbicidal action against ALOMY ([2]; dosage 80 g/ha): 0%; Herbicidal action against ALOMY ([2]; dosage 320 g/ha): 10%; Herbicidal action against AVEFA ([4]; dosage 80 g/ha): 0%; Herbicidal action against AVEFA ([4]; dosage 320 g/ha): 0%; Herbicidal action against ECHCG ([5]; dosage 80 g/ha): 0%; Herbicidal action against LOLRI ([6]; dosage 80 g/ha): 0%; Herbicidal action against LOLRI ([6]; dosage 320 g/ha): 0%
Cc1ccc2c(c1)[C@H](Nc1ncc([C@H](C)O)c(N)n1)[C@@H](C)C2 (racemic) [drawing 11, reference compound]																					Herbicidal action against AMARE ([3]; dosage 80 g/ha): 80%; Herbicidal action against AVEFA ([4]; dosage 80 g/ha): 0%; Herbicidal action against AVEFA ([4]; dosage 320 g/ha): 50%
Cc1ccc2c(c1)C(Nc1ncc(C(C)(C)O)cn1)CCC2 (racemic) [Example 1.43]	90%	100%	90%	100%	100%	100%	100%	100%	100%	100%	100%	100%	100%	100%	100%	100%	100%	90%	100%	90%	Herbicidal action against VIOTR [24]: 90%
Cc1ccc2c(c1)[C@H](Nc1ncc(C(C)(O)C(F)(F)F)cn1)[C@@H](C)C2 (some centres unmarked) [Example 1.11]	100%	100%	100%	100%	100%	100%	100%	100%	100%	100%	100%	80%	100%	100%	100%	100%	100%	90%	100%	90%	Herbicidal action against VIOTR [24]: 90%
CC#CC(C)(O)c1cnc(N[C@H]2c3cc(C)ccc3C[C@@H]2C)nc1 (some centres unmarked) [Example 1.22]	90%	100%	100%	100%	100%	100%	100%	100%	100%	100%	100%	100%	100%	100%	100%	100%	100%	90%	90%	90%	Herbicidal action against VIOTR [24]: 90%
CCc1ccc2c(c1)[C@H](Nc1ncc(C(C)(C)O)c(C)n1)CC2 [Example 1.57]	100%	100%	90%	100%	100%	100%	100%	100%	100%	100%	100%	100%	100%	100%	100%	100%	100%	90%	90%	90%	Herbicidal action against VIOTR [24]: 90%
C=C(C)COC(C)(C)c1cnc(N[C@H]2c3cc(C)ccc3C[C@@H]2C)nc1 [Example 1.63]	100%	100%	100%	100%	100%	100%	90%	100%	90%	100%	100%	100%	100%	100%	100%	100%	100%	90%	90%	90%	Herbicidal action against VIOTR [24]: 90%
